From US11014902B2, “MYC G-quadruplex stabilizing small molecules and their use” (The United States of America, as represented by the …, priority 2015, dated 2021) come the findings set out here.

Read-outs that look alike come from different tables or passages of the source.

Common to all, as to type: cell-based, human
The test system of assay [1] is c-MYC expression in L363 cells. As to the kind of experiment: Inhibition of c-MYC expression in L363 cells (Peggy). The settings on record: for Peggy (% c-Myc expression compared to untreated): L363 cells; for activity at 10 µM / Peggy (% c-Myc expression compared to untreated): at 10 μM. The text has this: FIG. 10 illustrates an exemplary procedure for generating analogs of Compound 1. The amine group of Compound 1 can be varied in reductive aminations to provide additional analogs. […] The table also provides an indication of an exemplary commercial source for the compounds, or (if applicable) an indication that the compound is new.

Assay [2] concerns L363 cells. As to the kind of experiment: L363 cell viability (MTS). The settings on record: for viability at 10 µM: L-363, L363 cells; for IC50: read-out: IC50. The protocol:
Since two thirds of multiple myeloma cases involve deregulated c-MYC expression (Kuehl and Bergsagel, Blood 2012, 120, 2351; Shou, et al., Proc Natl Acad Sci USA 2000, 97, 228), we elected to evaluate the cell viability effects of Compound 1 in a multiple myeloma model. […] This suppression was maintained over 72 hours, which is notable given the characteristic rapid replenishment of the protein—a phenomenon that complicates targeting c-Myc at the protein level (FIG. 4C). This effect was maintained across a genetically diverse set of 4 multiple myeloma lines. We observed decreases in c-MYC translation in all lines tested, and this effect also correlated with decreases in viability (FIG. 4D).
Human multiple myeloma and Burkitt's Lymphoma cell lines L363, CA46, MM-1R, KMS-11, and MM-1S were cultured and authenticated as previously described (Simmons, et al., Molecular oncology 2014, 8, 261). All plasma derived cell lines were cultured in RPMI-1640 (2 mM L-glutamine, 10% fetal bovine serum (FBS), 100 U/ml penicillin, 100 μg/ml streptomycin: Gibco) and incubated at 37° C. with 5% CO2. Viability experiments were performed in quadruplicate on 96-well plates (Costar) at designated time and dose points. MTS reagent was then directly added, incubated at 37° C. for 90 min, and absorbance of MTS formazan was read at 500 nm on an Omega 640 spectrophotometer. Percentage cell viability was normalized to the absorbance of untreated (DMSO) wells. In the case of cells harvested for their protein or RNA, pellets were flash frozen and stored at −80° C. overnight prior to use. […]

Assay [3] has as its system MYC expression in L363 cells. As to the kind of experiment: Gene expression analysis (Nanostring, qPCR), MYC. The settings on record: L363 cells, 48 hours; 10 μM BRACO-19, 10 μM Compound 1, 7.5 μM Compound 23. As to the method:
(§1) Gene expression analysis was performed on a panel of 770 cancer-associated genes in a multiplexed (nanostring) transcriptional assay. In addition to c-MYC itself, several c-Myc target genes were included in the panel, as were a number of other quadruplex-driven genes. […] Additionally, a third data set was collected comparing Compound 1 treatment to JQ-1 (a BET-bromodomain inhibitor) and quarfloxin (another quadruplex-binding small molecule).
(§2) The effects of Compound 1 on a number of known quadruplex-driven genes in the panel were examined further (FIG. 6). Expression levels of MYC, RB1, VEGFA, KRAS, and HIF1α, all of which are reported to be under the control of promoter G4s, and are expressed in L363 cells, were included in the panel of genes evaluated by Nanostring as discussed above. […] These changes in gene expression are in line with biophysical measurements of compound affinity. Corresponding data showing similar results is presented for Compounds 1 and 23 in FIGS. 14A and 14B. […] These observations further highlight the ability of Compound 1 and Compound 23 to specifically target the expression of c-Myc and related pathways.
(§3) The phenotype for c-MYC genetic knockdown in multiple myeloma was achieved through lentiviral transduction of shRNA for c-MYC, derived from the spinoculation of 293T cells and plasmids grown in STBL3 E. coli, and isolated with the Qiagen Plasmid Midi Kit. Aliquots of the plasmids were generously provided by Art Shaffer. RNA of treated myeloma cells at designated time points was isolated with the Qiagen RNeasy kit, and used with the nCounter Human Cancer Reference Kit (NanoString Technologies), surveying changes in expression for […] cancer-related human genes and 6 reference genes. Quantitative changes in expression were analyzed and grouped in the form of a heat map using the programming language, R. All other quantitative statistical packing was performed in GraphPad Prism.

Assay [4] relates to RB1, VEGFA, KRAS, HIF1α, BCL2 expression in L363 cells. As to the kind of experiment: Gene expression analysis (Nanostring, qPCR), other G4-associated genes. The settings on record: L363 cells, 48 hours; 10 μM BRACO-19, 10 μM Compound 1, 7.5 μM Compound 23. As to the method: as §1, §2, §3
Setting [5] is: Homo sapiens, L-363, L363 cells, read-out: Peggy (% c-Myc expression compared to untreated).
[6] abbreviates: Homo sapiens, L-363, viability of L363 cells.

For `Cc1ccc(NC(=O)c2c(C)oc3ccc(O)cc23)cc1` [Compound 14], the activity at 10 µM in assay [1] (setting [5]) turned out to be 106%. In assay [2] (Homo sapiens), the viability (as a rule, a per cent measure of how many cells are alive, often set against a control) at 10 µM was found to be 84%.

In assay [2] (Homo sapiens), `Cc1oc2ccc(O)c(CN3CC4CCC3C4)c2c1C(=O)Nc1ccc(C(F)(F)F)cc1` (stereo not drawn) [Compound 32] displayed a viability at 10 µM of 100%.

`Cc1ccc(NC(=O)c2c(C)oc3cccc(CN4CCCCCC4)c23)cc1` [Compound 15]: in assay [1] (setting [5]), the activity at 10 µM was 80%. Moreover, the viability at 10 µM in assay [2] (Homo sapiens) worked out at 53%.

For `Cc1oc2ccc(O)c(CN3CCC[C@H]3C)c2c1C(=O)Nc1ccc(C(F)(F)F)cc1` [Compound 28], the IC50 – broadly, the concentration that inhibits the measured activity by half – in assay [2] (setting [6]) was 6.84 µM.

With `Cc1oc2ccc(O)c(CN3CCCCCC3)c2c1C(=O)NC1CCCCC1` [Compound 8], in assay [1] (setting [5]), the activity at 10 µM is 76%.

Turning to `COc1ccc(NC(=O)c2c(C)oc3ccc(O)c(CN4CCCCCC4)c23)cc1` [Compound 7], the activity at 10 µM in assay [1] (setting [5]) came to 81%. The IC50 in assay [2] (setting [6]) was 7.2 µM.

The compound `Cc1oc2ccc(O)c(CNC3CC4CCC3C4)c2c1C(=O)Nc1ccc(C(F)(F)F)cc1` (stereo not drawn) [Compound 33] showed a viability at 10 µM in assay [2] (Homo sapiens) of 100%.

For the compound `Cc1oc2ccc(O)c(CN3CCCCCC3)c2c1C(=O)Nc1cccc(Cl)c1C` [Compound 6], the activity at 10 µM in assay [1] (setting [5]) is 45%. The IC50 in assay [2] (setting [6]) was 4.9 µM.

Turning to `Cc1oc2ccc(O)c(CN3CCCC3)c2c1C(=O)Nc1ccccc1` [Compound 9], in assay [1] (setting [5]), the activity at 10 µM worked out at 96%. Besides, the viability at 10 µM in assay [2] (Homo sapiens) was determined as 100%.

Turning to `CN(C)c1ccc(Nc2c3ccc(NC(=O)CCN4CCCC4)cc3nc3cc(NC(=O)CCN4CCCC4)ccc23)cc1` [BRACO-19, reference compound], the “c-Myc expression (qPCR)” value in assay [3] is on record as “reduced c-Myc expression”. The “expression of other G-quadruplex containing genes (qPCR)” value in assay [4] is “minimally affecting expression of other G-quadruplex containing genes”.

Regarding `CCOC(=O)c1c(-c2ccccc2)oc2ccc(O)c(CN3CCCCCC3)c12` [Compound 10], the activity at 10 µM in assay [1] (setting [5]) was 37%. For the same compound, the concentration for half-maximal inhibition (IC50) in assay [2] (setting [6]) is 7.1 µM.

As to `Cc1ccccc1NC(=O)c1c(C)oc2ccc(O)c(CN3CCCCCC3)c12` [Compound 4], the activity at 10 µM in assay [1] (setting [5]) was 73%. In assay [2] (Homo sapiens), this compound came in with a viability at 10 µM of 75%.

In the case of `Cc1oc2ccc(O)c(CN3CCCCC3C)c2c1C(=O)Nc1cccc(C(F)(F)F)c1` (stereo not drawn) [Compound 19], the activity at 10 µM in assay [1] (setting [5]) is 0.56%. Moreover, the IC50 in assay [2] (setting [6]) amounted to 3.8 µM.

With `Cc1oc2ccc(O)c(CN3CCC(C)CC3)c2c1C(=O)Nc1cccc(C(F)(F)F)c1` [Compound 20], the “Peggy (% c-Myc expression compared to untreated)” value in assay [1] is on record as 1.4% (at 10 μM). Besides, in assay [2] (viability of L363 cells), the IC50 is 3.8 µM.

With `Cc1oc2ccc(O)c(CNC3CC4CCC3CC4)c2c1C(=O)Nc1ccc(C(F)(F)F)cc1` (stereo not drawn) [Compound 34], the IC50 in assay [2] (setting [6]) stood at 9.83 µM.

In the case of `Cc1oc2ccc(O)c(CN3CCC3)c2c1C(=O)Nc1ccc(C(F)(F)F)cc1` [Compound 22], the activity at 10 µM in assay [1] (setting [5]) worked out at 27%. This compound gave a viability at 10 µM in assay [2] (Homo sapiens) of 100%.

As for `Cc1oc2ccc(O)c(CCN3CCCCCC3)c2c1C(=O)Nc1ccc(C(F)(F)F)cc1` [Compound 30], the half-maximal inhibitory concentration (IC50) in assay [2] (setting [6]) worked out at 38.2 µM.

Take `Cc1oc2ccc(O)c(CN3CCCC3)c2c1C(=O)Nc1cccc(C(F)(F)F)c1` [Compound 24]: the activity at 6 µM in assay [1] (Homo sapiens, L-363, L363 cells, at 6 μM, read-out: Peggy (% c-Myc expression compared to untreated)) amounted to 63%. In assay [2] (setting [6]), the concentration for half-maximal inhibition (IC50) is 7.8 µM.

As to `CCOC(=O)c1c(C)n(C)c2ccc(O)c(CN3CCC(C)CC3)c12` [Compound 11], the activity at 10 µM in assay [1] (setting [5]) stood at 69%. Also, in assay [2] (Homo sapiens), the viability at 10 µM was 89%.

In the case of `Cc1oc2ccc(O)c(CN3CCC[C@@H]3C)c2c1C(=O)Nc1ccc(C(F)(F)F)cc1` [Compound 29], the IC50 in assay [2] (setting [6]) was 4.45 µM.

As to `Cc1oc2ccc(O)c(CN3CCC(C)CC3)c2c1C(=O)Nc1ccc(C(F)(F)F)cc1` [Compound 26], the IC50 in assay [2] (setting [6]) stood at 11.4 µM.

`Cc1ccc(NC(=O)c2c(C)oc3ccc(OS(=O)(=O)C(F)(F)F)c(CN4CCCCCC4)c23)cc1` [Compound 16]: in assay [1] (setting [5]), the activity at 10 µM was 112%. The same compound had a viability at 10 µM in assay [2] (Homo sapiens) of 70%.

Consider `Cc1oc2ccc(O)c(CN3CCCC[C@@H]3C)c2c1C(=O)Nc1ccc(C(F)(F)F)cc1` [Compound 27], for which the IC50 in assay [2] (setting [6]) came to 25.8 µM.

For `Cc1oc2ccc(O)c(CN3CCCC3)c2c1C(=O)Nc1ccc(C(F)(F)F)cc1` [Compound 25], the activity at 10 µM in assay [1] (setting [5]) came out at 32%. In addition, the IC50 in assay [2] (setting [6]) worked out at 1.6 µM.

`Cc1oc2ccc(O)c(CNC3CC4CCC3CC4)c2c1C(=O)Nc1ccc(C(F)(F)F)cc1` (stereo not drawn) [Compound 35] yielded a viability at 10 µM in assay [2] (Homo sapiens) of 100%.

For the compound `Cc1oc2ccc(O)c(CN3CCCCC3)c2c1C(=O)Nc1cccc(C(F)(F)F)c1` [Compound 18], the activity at 10 µM in assay [1] (setting [5]) was 6.5%. Also, in assay [2] (setting [6]), the IC50 stood at 5.2 µM.

Regarding `Cc1ccccc1NC(=O)c1c(C)oc2ccc(O)c(CN3CCCCC3)c12` [Compound 5], in assay [1] (setting [5]), the activity at 10 µM worked out at 89%. This compound displayed a viability at 10 µM in assay [2] (Homo sapiens) of 85%.

`Cc1oc2ccc(O)c(CN3CCN(C)CC3)c2c1C(=O)Nc1cccc(C(F)(F)F)c1` [Compound 17]: the activity at 10 µM in assay [1] (setting [5]) came to 68%. In addition, the IC50 in assay [2] (setting [6]) is > 12 µM.

`Cc1oc2ccc(O)c(CN3CCC3)c2c1C(=O)Nc1cccc(C(F)(F)F)c1` [Compound 21]: the activity at 10 µM in assay [1] (setting [5]) amounted to 74%. The IC50 in assay [2] (setting [6]) was > 12 µM.

As to `Cc1ccc(NC(=O)c2c(C)oc3ccc(O)c(CN4CCCCCC4)c23)c(C)c1` [Compound 3], in assay [1] (setting [5]), the activity at 10 µM amounted to 52%. For the same compound, the IC50 in assay [2] (setting [6]) was found to be 6.3 µM.

Consider `Cc1oc2ccc(O)c(CN3CCCCCC3)c2c1C(=O)Nc1cccc(C(F)(F)F)c1` [Compound 13], for which, in assay [1] (setting [5]), the activity at 10 µM is 12%. Moreover, the IC50 in assay [2] (setting [6]) was 3.3 µM.

In the case of `Cc1ccc(NC(=O)c2c(C)oc3ccc(O)c(CN4CCN(C)CC4)c23)cc1` [Compound 2], the activity at 10 µM in assay [1] (setting [5]) came to 72%. Also, the viability at 10 µM in assay [2] (Homo sapiens) stood at 95%.

As for `Cc1oc2ccc(O)c(CCCN3CCCCCC3)c2c1C(=O)Nc1ccc(C(F)(F)F)cc1` [Compound 31], the viability at 10 µM in assay [2] (Homo sapiens) was 100%.

As to `Cc1oc2ccc(O)c(CN3CCC(C)CC3)c2c1C(=O)Nc1cccc(C(F)(F)F)c1` [Compound 12], the “Peggy (% c-Myc expression compared to untreated)” value in assay [1] was 43% (at 10 μM). In assay [2] (setting [6]), the IC50 is 3.4 µM.
